From paper PMC7128553 (Chemistry & Biology, 2004)
Entries after “also recorded” stand apart in the source; their conditions may differ. Read-outs that look alike come from different tables or passages of the source.

Tests used:
Vero cells = settings: African green monkey
SARS-CoV = assay: microbe, parasite or virus in culture; assay type: cell-based; settings: read-out: EC50, SARS-CoV plaque formation
[1] = biological target: T1, human neutrophil elastase (HNE) (Homo sapiens, UniProt P08246); assay type: biochemical
T1 sequence (P08246 30-267): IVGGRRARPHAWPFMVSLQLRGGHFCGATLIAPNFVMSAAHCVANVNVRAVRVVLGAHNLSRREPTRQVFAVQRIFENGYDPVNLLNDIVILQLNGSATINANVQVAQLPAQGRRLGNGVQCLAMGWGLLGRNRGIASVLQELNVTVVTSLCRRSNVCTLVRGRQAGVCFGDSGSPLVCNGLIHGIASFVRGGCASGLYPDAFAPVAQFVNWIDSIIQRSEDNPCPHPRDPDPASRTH

poliovirus (type 1) = assay type: cell-based
[2] = Severe acute respiratory syndrome coronavirus, Vero

Compound	Cytotoxicity on Vero Cells (TC50) (Vero cells) [µM]	EC50 (SARS-CoV; [2]) [µM]	EC50 (SARS-CoV) [µM]	Inhibition of proteolytic activity of HNE [1]	Inhibition of poliovirus plaque formation (poliovirus (type 1))
O=C(Nc1ccc(Cl)c(-c2nc3ncccc3o2)c1)c1cccc(OCc2ccccc2)c1 [HE602, 3-Benzyloxy-N-(4-chloro-3-oxazolo[4,5-b]pyridine-2-yl-phenyl)benzamide]	>50	6	< 10	–	–
CC1=C(C(=O)OCCc2ccccc2)C(c2ccccc2[N+](=O)[O-])C2=C(CCCC2=O)N1 (stereo not drawn) [MP576, 3-quinolinecarboxylic acid, 1,4,5,6,7,8-hexahydro-2-methyl-4-(2-nitrophenyl)-5-oxo-, 2-phenylethyl ester]	>50	7	< 10	failed to inhibit; also recorded: did not inhibit	–
OC(COc1cccc(OCC(O)CN2CCCCC2)c1)CN1CCCCC1 (stereo not drawn) [VE607, 1-[3-(2-Hydroxyl-3-piperidin-1-yl-propoxy)-phenoxy]-3-piperidin-1-ylpropan-2-ol]	>50	–	–	–	did not protect; also recorded: did not inhibit
